From patent US20060069132A1, “Azolecarboxamide herbicides” (priority 2004, published 2006)

What was measured:
[1] = system: rice; test: Test B pre-/postemergence herbicide test; type: in vivo, Oryza sativa; details: preemergence
Procedure, shortened: (§1)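 Seeds were planted and treated preemergence with compounds formulated in a non-phytotoxic solvent mixture containing surfactant, while plants at the 1- to 4-leaf stage (2 to 18 cm) received postemergence sprays. Flooded paddy plants were grown to the 2-leaf stage. After 13 to 15 days in a greenhouse, injury was visually rated 0–100 against untreated controls.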

[2] = system: blackgrass; test: Test B postemergence herbicide test; type: in vivo, Alopecurus myosuroides; details: scale 0 (no effect) to 100 (complete control); for Blackgrass plant response rating: postemergence, visual rating
Procedure, shortened: (§2)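 Paddy species grown to the 2-leaf stage under flooding; blackgrass sprayed postemergence at 2–18 cm (1- to 4-leaf stage). Plants kept in a greenhouse for 13 to 15 days, then visually rated against controls on 0 (no effect) to 100 (complete control).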

[3] = system: small flower umbrella sedge; test: Test B flooded paddy test; type: in vivo, Cyperus difformis; details: 1000 g ai/ha, scale 0 to 100 (0 no effect, 100 complete control)
Procedure, shortened: as §2

[4] = system: barnyardgrass; test: Test B flooded paddy test; type: in vivo, Echinochloa crus-galli; details: 1000 g ai/ha, scale 0 to 100 (0 no effect, 100 complete control)
Procedure, shortened: as §2

[5] = system: barnyardgrass; test: Test B pre-/postemergence herbicide test; type: in vivo, Echinochloa crus-galli
Procedure, shortened: (§3)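 Test chemicals in a non-phytotoxic solvent mixture with surfactant were applied preemergence to seeded species and postemergence to plants 2-18 cm tall (1- to 4-leaf stage); rice and barnyardgrass were also tested in a flooded paddy at the 2-leaf stage. Visual rating versus controls after 13-15 days in greenhouse, scale 0 (no effect) to 100 (complete control).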

[6] = system: lambsquarters; test: Test B pre-/postemergence herbicide test; type: in vivo, Chenopodium album; details: for Lambsquarters plant response rating: postemergence
Procedure, shortened: as §1

[7] = system: velvetleaf; test: Test B pre-/postemergence herbicide test; type: in vivo, Abutilon theophrasti; details: for Velvetleaf plant response rating: postemergence
Procedure, shortened: as §1

[8] = system: corn; test: Test B pre-/postemergence herbicide test; type: in vivo, Zea mays
Procedure, shortened: as §1

[9] = system: cocklebur; test: Test B pre-/postemergence herbicide test; type: in vivo, Xanthium strumarium
Procedure, shortened: as §3

[10] = system: ducksalad; test: Test B flooded paddy test; type: in vivo, Heteranthera limosa; details: 1000 g ai/ha, scale 0 to 100 (0 no effect, 100 complete control)
Procedure, shortened: as §2

[11] = system: large crabgrass; test: Test B pre-/postemergence herbicide test; type: in vivo, Digitaria sanguinalis
Procedure, shortened: as §1

[12] = system: giant foxtail; test: Test B pre-/postemergence herbicide test; type: in vivo, Setaria faberi
Procedure, shortened: as §1

[13] = system: wheat; test: Test B postemergence herbicide test; type: in vivo, Triticum aestivum; set-up: key to Wheat plant response rating: 0 = no effect, 100 = complete control; details: scale 0 (no effect) to 100 (complete control); for Wheat plant response rating: postemergence, visual rating
Procedure, shortened: (§4)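 Read-out: visual comparison with controls, scored 0 to 100, where 100 means complete control and 0 no effect. Formulated chemicals were applied postemergence to plants 2–18 cm tall (1- to 4-leaf), or to flooded-paddy plants at the 2-leaf stage, then held 13 to 15 days under glass.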

[14] = system: rice; test: Test B flooded paddy test; type: in vivo, Oryza sativa; details: 1000 g ai/ha, scale 0 to 100 (0 no effect, 100 complete control)
Procedure, shortened: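 Visual ratings, 0 (no effect) to 100 (complete control), made versus controls after 13–15 d greenhouse. Paddy plants treated at 2-leaf stage; postemergence plants at 1- to 4-leaf stage, 2–18 cm tall.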

[15] = system: pigweed; test: Test B pre-/postemergence herbicide test; type: in vivo, Amaranthus retroflexus; details: for Pigweed plant response rating: postemergence
Procedure, shortened: as §1

[16] = system: wild oat; test: Test B postemergence herbicide test; type: in vivo, Avena fatua; details: scale 0 (no effect) to 100 (complete control); for Oat, Wild plant response rating: postemergence, visual rating
Procedure, shortened: as §4

[17] = system: Surinam grass; test: Test B pre-/postemergence herbicide test; type: in vivo, Urochloa decumbens; details: for Surinam Grass plant response rating: postemergence
Procedure, shortened: as §1

[18] = system: morningglory; test: Test B pre-/postemergence herbicide test; type: in vivo, Ipomoea coccinea; details: for Morningglory plant response rating: postemergence
Procedure, shortened: as §3

[19] = 125 g ai/ha, 0 = no effect, 100 = complete control, preemergence
[20] = 500 g ai/ha, visual rating, 0 = no effect, 100 = complete control, preemergence
[21] = postemergence, 125 g ai/ha, visual rating, scale 0 (no effect) to 100 (complete control)
[22] = postemergence, 500 g ai/ha, visual rating, scale 0 (no effect) to 100 (complete control)
[23] = 125 g ai/ha, visual rating, scale 0 (no effect) to 100 (complete control)
[24] = 500 g ai/ha, visual rating, scale 0 (no effect) to 100 (complete control)
[25] = Postemergence, 500 g ai/ha, visual rating after 13 to 15 days
[26] = Postemergence, 500 g ai/ha, visual rating after 13 to 15 days, scale 0 (no effect) to 100 (complete control)
[27] = Preemergence, 500 g ai/ha, scale 0 to 100
[28] = preemergence, 125 g ai/ha, 0 to 100 scale, 0 is no effect, 100 is complete control

CCc1nn(C(C)(C)C)cc1C(=O)Nc1ccc(F)c(C(=O)N(C)C)c1 [Compound 239]
Rice plant response rating (0 to 100 scale) ([1]; 125 g ai/ha, 0 = no effect, 100 = complete control): 0 | Plant response rating, Rice ([1]; 500 g ai/ha, visual rating, 0 = no effect, 100 = complete control): 0 | Blackgrass plant response rating ([2]; 125 g ai/ha): 0 | Blackgrass plant response rating ([2]; 500 g ai/ha): 0 | Sedge, Umbrella plant response rating [3]: 70 | Barnyardgrass plant response rating [4]: 0 | Barnyardgrass plant response rating (0 to 100 scale) [5, 19]: 0 | Plant response rating, Barnyardgrass [5, 20]: 60 | Barnyardgrass plant response rating [5, 21]: 0 | Barnyardgrass plant response rating [5, 22]: 0 | Lambsquarters plant response rating (0 to 100 scale) [6, 19]: 20 | Plant response rating, Lambsquarters [6, 20]: 70 | Lambsquarters plant response rating [6, 23]: 0 | Lambsquarters plant response rating [6, 24]: 30 | Velvetleaf plant response rating (0 to 100 scale) [7, 19]: 0 | Plant response rating, Velvetleaf [7, 20]: 0 | Velvetleaf plant response rating [7, 23]: 0 | Velvetleaf plant response rating [7, 24]: 10 | Corn plant response rating (0 to 100 scale) [8, 19]: 0 | Plant response rating, Corn [8, 20]: 0 | Corn plant response rating [8, 21]: 0 | Corn plant response rating [8, 22]: 20 | Cocklebur plant response rating (0 to 100 scale) [9, 19]: 0 | Plant response rating, Cocklebur [9, 20]: 0 | Cocklebur plant response rating [9, 21]: 0 | Cocklebur plant response rating [9, 22]: 20 | Ducksalad plant response rating [10]: 0 | Crabgrass, Large plant response rating (0 to 100 scale) [11, 19]: 0 | Plant response rating, Crabgrass, Large [11, 20]: 100 | Crabgrass, Large plant response rating [11, 21]: 0 | Crabgrass, Large plant response rating [11, 22]: 20 | Foxtail, Giant plant response rating (0 to 100 scale) [12, 19]: 0 | Plant response rating, Foxtail, Giant [12, 20]: 0 | Foxtail, Giant plant response rating [12, 21]: 0 | Foxtail, Giant plant response rating [12, 22]: 0 | Wheat plant response rating ([13]; 125 g ai/ha): 0 | Wheat plant response rating ([13]; 500 g ai/ha): 0 | Rice plant response rating [14]: 30 | Pigweed plant response rating (0 to 100 scale) [15, 19]: 0 | Plant response rating, Pigweed [15, 20]: 70 | Pigweed plant response rating [15, 23]: 20 | Pigweed plant response rating [15, 24]: 50 | Oat, Wild plant response rating ([16]; 125 g ai/ha): 0 | Oat, Wild plant response rating ([16]; 500 g ai/ha): 0 | Surinam Grass plant response rating (0 to 100 scale) [17, 19]: 0 | Plant response rating, Surinam Grass [17, 20]: 0 | Surinam Grass plant response rating [17, 23]: 0 | Surinam Grass plant response rating [17, 24]: 30 | Morningglory plant response rating (0 to 100 scale) [18, 19]: 0 | Plant response rating, Morningglory [18, 20]: 0 | Morningglory plant response rating [18, 23]: 0 | Morningglory plant response rating [18, 24]: 10

CCn1nc(C(C)(C)C)cc1C(=O)Nc1cc(C(=O)OC(C)C)c(OC)cc1F [Compound 77]
Plant response rating, Rice ([1]; 125 g ai/ha, 0 to 100 scale, 0 is no effect, 100 is complete control): 0 | Plant response rating, Blackgrass [2, 25]: 30 | Blackgrass plant response rating ([2]; 125 g ai/ha): 20 | Sedge, Umbrella plant response rating ([3]; visual rating, 13 to 15 days): 80 | Barnyardgrass plant response rating ([4]; visual rating, 13 to 15 days): 40 | Plant response rating, Barnyardgrass [5, 26]: 0 | Barnyardgrass plant response rating [5, 27]: 70 | Barnyardgrass plant response rating [5, 21]: 0 | Plant response rating, Barnyardgrass [5, 28]: 0 | Plant response rating, Lambsquarters [6, 26]: 90 | Lambsquarters plant response rating [6, 23]: 50 | Plant response rating, Lambsquarters [6, 28]: 60 | Plant response rating, Velvetleaf [7, 26]: 30 | Velvetleaf plant response rating [7, 23]: 20 | Plant response rating, Velvetleaf [7, 28]: 0 | Plant response rating, Corn [8, 26]: 10 | Corn plant response rating [8, 27]: 40 | Corn plant response rating [8, 21]: 10 | Plant response rating, Corn [8, 28]: 0 | Plant response rating, Cocklebur [9, 26]: 0 | Cocklebur plant response rating [9, 27]: 0 | Cocklebur plant response rating [9, 21]: 0 | Plant response rating, Cocklebur [9, 28]: 0 | Ducksalad plant response rating ([10]; visual rating, 13 to 15 days): 40 | Plant response rating, Crabgrass, Large [11, 26]: 40 | Crabgrass, Large plant response rating [11, 27]: 80 | Crabgrass, Large plant response rating [11, 21]: 0 | Plant response rating, Crabgrass, Large [11, 28]: 0 | Plant response rating, Foxtail, Giant [12, 26]: 40 | Foxtail, Giant plant response rating [12, 27]: 60 | Foxtail, Giant plant response rating [12, 21]: 0 | Plant response rating, Foxtail, Giant [12, 28]: 0 | Plant response rating, Wheat [13, 25]: 20 | Wheat plant response rating ([13]; 125 g ai/ha): 10 | Rice plant response rating ([14]; visual rating, 13 to 15 days): 70 | Plant response rating, Pigweed [15, 26]: 90 | Pigweed plant response rating [15, 23]: 70 | Plant response rating, Pigweed [15, 28]: 90 | Plant response rating, Oat, Wild [16, 25]: 40 | Oat, Wild plant response rating ([16]; 125 g ai/ha): 40 | Plant response rating, Surinam Grass [17, 26]: 20 | Surinam Grass plant response rating [17, 23]: 0 | Plant response rating, Surinam Grass [17, 28]: 0 | Plant response rating, Morningglory [18, 26]: 70 | Morningglory plant response rating [18, 23]: 0 | Plant response rating, Morningglory [18, 28]: 0
